# Data published in ChEMBL document CHEMBL3580597 (J Med Chem, 2015).
# Experiments:
# [1] = target: T1, Bromodomain-containing protein 2 (Homo sapiens, UniProt P25440); test: Binding affinity to biotinylated BRD2 BD1 (72 to 205 amino acid residues) (unknown origin) expressed in Rosetta2 DE3 cells by bio-layer interferometry method
# [2] = target: T1, Bromodomain-containing protein 2; test: Binding affinity to biotinylated BRD2 BD2 (349 to 460 amino acid residues) (unknown origin) expressed in Rosetta2 DE3 cells by bio-layer interferometry method
# [3] = target: T2, ATPase family AAA domain-containing protein 2B (Homo sapiens, UniProt Q9ULI0); test: Binding affinity to biotinylated ATAD2B (953 to 1086 amino acid residues) (unknown origin) expressed in Rosetta2 DE3 cells by bio-layer interferometry method
# T2 sequence (Q9ULI0 whole entry): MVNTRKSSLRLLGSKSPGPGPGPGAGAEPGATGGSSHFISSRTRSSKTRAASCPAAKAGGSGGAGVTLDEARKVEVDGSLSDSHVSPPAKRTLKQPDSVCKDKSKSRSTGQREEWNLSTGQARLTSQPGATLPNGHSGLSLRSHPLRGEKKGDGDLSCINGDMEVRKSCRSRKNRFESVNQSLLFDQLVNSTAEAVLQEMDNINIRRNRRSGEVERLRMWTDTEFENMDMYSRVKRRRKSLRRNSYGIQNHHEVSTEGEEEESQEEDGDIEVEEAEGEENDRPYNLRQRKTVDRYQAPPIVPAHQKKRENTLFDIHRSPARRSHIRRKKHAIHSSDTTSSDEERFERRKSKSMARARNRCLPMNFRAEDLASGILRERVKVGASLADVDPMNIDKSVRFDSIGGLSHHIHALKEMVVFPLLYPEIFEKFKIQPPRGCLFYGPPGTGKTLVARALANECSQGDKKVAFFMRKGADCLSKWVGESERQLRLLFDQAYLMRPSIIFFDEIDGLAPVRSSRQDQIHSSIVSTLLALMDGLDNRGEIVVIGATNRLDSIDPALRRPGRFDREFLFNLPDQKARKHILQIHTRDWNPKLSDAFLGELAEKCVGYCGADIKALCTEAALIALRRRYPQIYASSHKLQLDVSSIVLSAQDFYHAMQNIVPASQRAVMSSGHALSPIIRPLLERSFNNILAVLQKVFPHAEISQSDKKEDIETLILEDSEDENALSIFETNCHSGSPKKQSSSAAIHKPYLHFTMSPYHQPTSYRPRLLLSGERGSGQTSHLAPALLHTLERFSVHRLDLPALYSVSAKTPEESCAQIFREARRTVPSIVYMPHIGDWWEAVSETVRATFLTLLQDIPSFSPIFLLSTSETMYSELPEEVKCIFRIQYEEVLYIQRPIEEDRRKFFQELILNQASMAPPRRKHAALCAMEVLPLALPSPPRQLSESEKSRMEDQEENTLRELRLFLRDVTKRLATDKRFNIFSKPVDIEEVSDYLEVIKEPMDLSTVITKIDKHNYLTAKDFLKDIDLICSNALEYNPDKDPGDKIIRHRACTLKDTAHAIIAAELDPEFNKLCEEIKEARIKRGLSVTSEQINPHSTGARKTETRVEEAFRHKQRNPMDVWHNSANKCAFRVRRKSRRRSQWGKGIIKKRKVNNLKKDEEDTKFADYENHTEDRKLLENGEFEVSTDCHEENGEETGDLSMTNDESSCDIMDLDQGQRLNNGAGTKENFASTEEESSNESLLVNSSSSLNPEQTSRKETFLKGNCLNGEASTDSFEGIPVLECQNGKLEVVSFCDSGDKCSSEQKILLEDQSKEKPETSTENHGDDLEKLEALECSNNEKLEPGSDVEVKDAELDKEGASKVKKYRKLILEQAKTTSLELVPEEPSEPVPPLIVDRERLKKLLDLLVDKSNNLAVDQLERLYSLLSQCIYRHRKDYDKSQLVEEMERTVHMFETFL
# [4] = target: Transcription initiation factor TFIID subunit 1 (Homo sapiens, UniProt P21675); test: Binding affinity to biotinylated TAF1B2 (155 to 276 amino acid residues) (unknown origin) expressed in Rosetta2 cells by bio-layer interferometry method
# Transcription initiation factor TFIID subunit 1, sequence (P21675 whole entry, the tested form may be a part): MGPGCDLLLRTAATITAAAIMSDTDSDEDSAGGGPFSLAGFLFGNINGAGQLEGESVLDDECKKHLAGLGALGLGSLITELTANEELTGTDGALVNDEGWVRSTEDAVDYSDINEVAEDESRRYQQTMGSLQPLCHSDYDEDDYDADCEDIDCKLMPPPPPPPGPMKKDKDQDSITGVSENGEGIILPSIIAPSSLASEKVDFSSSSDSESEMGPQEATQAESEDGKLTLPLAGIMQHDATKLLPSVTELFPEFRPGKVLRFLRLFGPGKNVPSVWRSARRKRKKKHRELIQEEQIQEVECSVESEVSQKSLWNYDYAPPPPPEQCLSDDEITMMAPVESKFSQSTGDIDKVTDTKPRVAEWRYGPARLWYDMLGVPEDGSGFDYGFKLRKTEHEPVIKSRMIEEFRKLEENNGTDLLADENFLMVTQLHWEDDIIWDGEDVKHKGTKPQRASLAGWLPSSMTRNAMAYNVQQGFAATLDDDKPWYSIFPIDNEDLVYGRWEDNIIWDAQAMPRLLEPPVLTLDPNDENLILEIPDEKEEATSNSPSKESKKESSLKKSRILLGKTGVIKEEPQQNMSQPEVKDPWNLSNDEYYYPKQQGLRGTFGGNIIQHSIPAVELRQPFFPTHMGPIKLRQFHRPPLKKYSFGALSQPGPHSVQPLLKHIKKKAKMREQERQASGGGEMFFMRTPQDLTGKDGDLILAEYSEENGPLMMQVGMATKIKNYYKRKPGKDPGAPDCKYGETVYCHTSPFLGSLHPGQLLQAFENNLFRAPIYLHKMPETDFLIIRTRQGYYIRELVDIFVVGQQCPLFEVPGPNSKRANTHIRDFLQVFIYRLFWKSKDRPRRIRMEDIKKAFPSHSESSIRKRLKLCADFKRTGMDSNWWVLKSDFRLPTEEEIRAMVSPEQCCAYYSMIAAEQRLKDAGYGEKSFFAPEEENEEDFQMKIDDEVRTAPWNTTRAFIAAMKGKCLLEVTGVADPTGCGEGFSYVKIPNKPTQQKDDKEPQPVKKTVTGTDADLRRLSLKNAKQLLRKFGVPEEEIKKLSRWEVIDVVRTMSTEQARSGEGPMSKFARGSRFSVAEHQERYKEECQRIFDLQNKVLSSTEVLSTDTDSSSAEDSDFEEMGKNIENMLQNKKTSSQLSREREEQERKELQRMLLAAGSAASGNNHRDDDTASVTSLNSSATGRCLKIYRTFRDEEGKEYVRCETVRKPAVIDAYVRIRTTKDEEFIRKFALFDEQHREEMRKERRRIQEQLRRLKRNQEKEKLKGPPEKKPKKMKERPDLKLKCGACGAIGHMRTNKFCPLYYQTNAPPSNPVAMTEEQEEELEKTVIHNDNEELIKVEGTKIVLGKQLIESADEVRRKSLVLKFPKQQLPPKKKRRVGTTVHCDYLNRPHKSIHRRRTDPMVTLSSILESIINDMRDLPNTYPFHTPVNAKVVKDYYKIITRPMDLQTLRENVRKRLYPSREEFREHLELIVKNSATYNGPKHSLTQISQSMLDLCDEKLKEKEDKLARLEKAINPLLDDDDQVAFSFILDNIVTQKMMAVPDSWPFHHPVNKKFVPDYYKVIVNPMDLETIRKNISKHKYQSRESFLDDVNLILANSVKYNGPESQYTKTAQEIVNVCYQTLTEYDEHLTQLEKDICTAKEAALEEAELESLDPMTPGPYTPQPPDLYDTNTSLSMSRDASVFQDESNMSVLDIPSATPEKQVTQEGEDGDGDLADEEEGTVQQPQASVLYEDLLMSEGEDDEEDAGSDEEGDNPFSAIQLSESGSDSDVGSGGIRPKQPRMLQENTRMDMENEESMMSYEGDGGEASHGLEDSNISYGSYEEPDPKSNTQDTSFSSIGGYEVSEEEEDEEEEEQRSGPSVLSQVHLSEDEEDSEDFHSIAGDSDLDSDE
# [5] = target: SWI/SNF-related matrix-associated actin-dependent regulator of chromatin subfamily A member 4 (Homo sapiens, UniProt P51532); test: Binding affinity to biotinylated BRG1 (59 to 180 amino acid residues) (unknown origin) expressed in Rosetta2 cells by bio-layer interferometry method
# SWI/SNF-related matrix-associated actin-dependent regulator of chromatin subfamily A member 4, sequence (P51532 whole entry, the tested form may be a part): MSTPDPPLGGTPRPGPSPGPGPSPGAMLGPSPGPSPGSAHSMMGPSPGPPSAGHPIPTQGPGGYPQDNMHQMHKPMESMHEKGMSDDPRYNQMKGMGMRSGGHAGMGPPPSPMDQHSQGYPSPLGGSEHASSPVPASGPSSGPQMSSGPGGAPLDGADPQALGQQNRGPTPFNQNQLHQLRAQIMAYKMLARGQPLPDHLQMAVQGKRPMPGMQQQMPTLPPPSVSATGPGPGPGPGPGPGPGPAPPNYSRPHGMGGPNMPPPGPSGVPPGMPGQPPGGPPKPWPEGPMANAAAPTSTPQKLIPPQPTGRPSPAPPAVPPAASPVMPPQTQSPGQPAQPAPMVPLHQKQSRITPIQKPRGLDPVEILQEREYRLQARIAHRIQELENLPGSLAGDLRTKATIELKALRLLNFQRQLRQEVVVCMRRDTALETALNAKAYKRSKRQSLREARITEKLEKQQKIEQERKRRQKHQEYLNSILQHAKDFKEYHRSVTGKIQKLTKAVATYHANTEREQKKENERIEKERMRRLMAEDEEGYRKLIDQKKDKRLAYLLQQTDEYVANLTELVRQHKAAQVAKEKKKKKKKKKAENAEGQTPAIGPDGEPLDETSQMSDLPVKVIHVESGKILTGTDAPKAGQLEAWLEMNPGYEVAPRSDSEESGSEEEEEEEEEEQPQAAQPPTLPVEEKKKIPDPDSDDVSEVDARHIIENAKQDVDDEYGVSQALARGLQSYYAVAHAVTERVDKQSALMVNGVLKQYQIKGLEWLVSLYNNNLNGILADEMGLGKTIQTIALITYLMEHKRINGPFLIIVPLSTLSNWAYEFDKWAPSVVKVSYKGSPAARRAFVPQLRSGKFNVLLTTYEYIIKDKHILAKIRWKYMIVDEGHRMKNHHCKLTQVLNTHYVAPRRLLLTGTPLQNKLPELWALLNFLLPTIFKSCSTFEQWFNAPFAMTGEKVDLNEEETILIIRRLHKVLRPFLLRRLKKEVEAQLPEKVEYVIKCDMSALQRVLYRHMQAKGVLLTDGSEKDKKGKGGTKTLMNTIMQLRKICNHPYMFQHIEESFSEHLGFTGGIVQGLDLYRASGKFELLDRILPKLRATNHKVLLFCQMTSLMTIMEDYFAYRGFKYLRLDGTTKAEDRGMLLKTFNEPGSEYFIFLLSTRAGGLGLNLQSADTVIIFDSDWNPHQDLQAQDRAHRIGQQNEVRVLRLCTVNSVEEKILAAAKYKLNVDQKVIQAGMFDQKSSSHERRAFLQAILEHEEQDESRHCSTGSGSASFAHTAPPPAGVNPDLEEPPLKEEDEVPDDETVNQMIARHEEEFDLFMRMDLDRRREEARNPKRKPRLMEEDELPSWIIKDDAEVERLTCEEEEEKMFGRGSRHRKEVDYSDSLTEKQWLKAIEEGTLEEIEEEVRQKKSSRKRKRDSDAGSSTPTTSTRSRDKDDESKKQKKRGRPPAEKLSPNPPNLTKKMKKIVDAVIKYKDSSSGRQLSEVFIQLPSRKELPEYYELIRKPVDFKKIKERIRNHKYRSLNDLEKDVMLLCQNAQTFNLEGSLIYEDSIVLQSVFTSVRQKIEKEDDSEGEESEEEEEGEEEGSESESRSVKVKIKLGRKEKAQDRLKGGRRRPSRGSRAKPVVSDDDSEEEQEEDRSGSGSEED
# MV4-11 = test: cells; assay type: functional, cell-based; settings: Homo sapiens, MV4-11, 96 h
# K562 = test: cells; assay type: functional, cell-based; settings: Homo sapiens, K562, 96 h
# [6] = target: T3, Bromodomain-containing protein 4 (Homo sapiens, UniProt O60885); test: Displacement of FAM-labeled ZBA248 from BRD4 BD1 (44 to 168 amino acid residues) (unknown origin) expressed in Rosetta2 DE3 cells after 30 mins by fluorescence polarization assay
# [7] = target: T1, Bromodomain-containing protein 2; test: Displacement of FAM-labeled ZBA248 from BRD2 BD1 (72 to 205 amino acid residues) (unknown origin) expressed in Rosetta2 DE3 cells after 30 mins by fluorescence polarization assay
# [8] = target: T3, Bromodomain-containing protein 4; test: biochemical
# T1 sequence (P25440 whole entry, the tested form may be a part): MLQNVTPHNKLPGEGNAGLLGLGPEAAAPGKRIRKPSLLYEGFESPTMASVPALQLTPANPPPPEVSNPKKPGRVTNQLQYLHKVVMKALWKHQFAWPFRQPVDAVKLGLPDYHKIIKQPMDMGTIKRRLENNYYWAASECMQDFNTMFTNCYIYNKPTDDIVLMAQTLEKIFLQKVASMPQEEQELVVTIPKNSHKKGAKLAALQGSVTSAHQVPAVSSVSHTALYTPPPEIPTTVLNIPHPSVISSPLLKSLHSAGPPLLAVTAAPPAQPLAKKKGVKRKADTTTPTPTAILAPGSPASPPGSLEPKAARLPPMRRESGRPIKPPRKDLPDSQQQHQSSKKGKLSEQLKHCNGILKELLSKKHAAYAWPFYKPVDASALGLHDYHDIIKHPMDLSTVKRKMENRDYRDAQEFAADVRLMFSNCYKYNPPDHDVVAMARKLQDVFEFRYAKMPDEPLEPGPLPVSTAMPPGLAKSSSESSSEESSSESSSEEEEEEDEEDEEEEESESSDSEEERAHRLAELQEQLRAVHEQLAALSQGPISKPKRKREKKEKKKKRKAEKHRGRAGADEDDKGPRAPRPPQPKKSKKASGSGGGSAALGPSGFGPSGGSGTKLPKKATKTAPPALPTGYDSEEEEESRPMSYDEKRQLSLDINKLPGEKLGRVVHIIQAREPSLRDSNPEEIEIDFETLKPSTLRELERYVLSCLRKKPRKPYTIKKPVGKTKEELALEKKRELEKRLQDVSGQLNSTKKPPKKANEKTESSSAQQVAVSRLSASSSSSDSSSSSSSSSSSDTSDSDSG
structure (smiles),measurement,setting,value
COc1cc2c(cc1-c1c(C)noc1C)[nH]c1ccnc(-c3c(C4CC4)n[nH]c3C)c12,Kd,[1],48.1 nM
same,Kd,[2],29.6 nM
same,Kd,[3],> 10 µM
same,Kd,[4],> 10 µM
same,Kd,[5],> 10 µM
same,IC50,MV4-11,20 nM
same,IC50,K562,> 2000 nM
same,IC50,[6],75.5 nM
same,Ki,[6],24.7 nM
same,Ki,[7],11.1 nM
same,Kd,[8],47 nM
